EC50 data for 1 compound are collected here from BindingDB's records for patent US20250057848 (Neurim Pharmaceuticals (1991), 2025).

For this assay, the target named is Neurotensin receptor type 1 (Homo sapiens, UniProt P30989). Description: Binding of Neurotensin to the NTSR1 Receptor. An excerpt:
However, the potency of GAL 475 at these receptors was lower than 1 micromolar and therefore not considered to be pharmacologically interesting. […] GAL475 was subsequently tested for PAM activity at the human NTS1 (FAST-0330I) and NTS2 (FAST-0331I) receptors, at 100-50,000 nanomolar concentrations.

Neurotensin receptor type 1, sequence (P30989 whole entry, the tested form may be a part): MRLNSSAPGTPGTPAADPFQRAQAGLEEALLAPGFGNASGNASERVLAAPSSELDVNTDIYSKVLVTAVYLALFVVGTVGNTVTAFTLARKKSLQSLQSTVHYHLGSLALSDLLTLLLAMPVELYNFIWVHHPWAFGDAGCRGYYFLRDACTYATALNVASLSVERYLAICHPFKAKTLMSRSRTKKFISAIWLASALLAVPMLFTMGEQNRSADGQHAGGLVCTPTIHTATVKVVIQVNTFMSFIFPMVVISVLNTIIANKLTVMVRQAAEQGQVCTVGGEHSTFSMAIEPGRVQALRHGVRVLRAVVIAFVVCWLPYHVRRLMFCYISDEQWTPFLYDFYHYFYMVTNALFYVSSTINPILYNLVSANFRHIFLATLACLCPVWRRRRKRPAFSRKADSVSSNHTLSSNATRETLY

Regarding `CCCNc1nc(NC)nc2c1NC(NC)N=C2NCC(C)(C)O` (stereo unspecified) [US20250057848, Compound GAL-475], the EC50 – broadly, the concentration giving half of the maximal effect – came out at 355 nM.
